Reference: patent US20240376142A1, “A-SALIDROSIDE, METHOD FOR PREPARING SAME, AND APPLICATION THEREOF” (SHANDONG HENGLU BIOTECH. CO., LTD., priority 2021, published 2024)

Columns and labels:
[1] = DPPH radical scavenging experiment; type: biochemical; conditions: for DPPH Radical Scavenging Rate: 500 mg/L aqueous sample solution mixed 1:1 with 0.04 mg/ml DPPH ethanol solution, dark, 517 nm
Source text: Free radicals play a significant role, either directly or indirectly, in oxidative processes and are widely involved in the physiological and pathological processes of the body. When the body has an excess of free radicals, the body damage can be caused by free radicals through oxidative actions. Phenolic compounds, being donors of phenolic hydroxyl groups, form the structural basis for antioxidant activity. This experiment employs the DPPH [1,1-Diphenyl-2-trinitrophenyl hydrazine, also known as 1,1-Diphenyl-2-picrylhydrazyl, (free radical)] radical scavenging reaction to study the scavenging efficiency of α-salidroside and β-salidroside on DPPH radicals. • (1) α-salidroside solution: prepared as a 500 mg/L aqueous solution using conventional methods. • (2) β-salidroside solution: prepared as a 500 mg/L aqueous solution using conventional methods. • (3) DPPH ethanol solution: prepared as a 0.04 mg/ml solution in anhydrous ethanol using conventional methods. • (1) 0.9 mL each of α-salidroside solution and β-salidroside aqueous solution were taken separately, and 0.9 mL of DPPH anhydrous ethanol solution was added to each, mixed well, and then left to stand in the dark. Samples were taken at 0.5 h, 1 h, 2 h, and 4 h respectively, and the absorbance was measured at a wavelength of 517 nm. The average of three parallels was calculated and noted as Ai. • (2) 0.9 mL each of α-salidroside solution and β-salidroside aqueous solution were taken separately, and 0.9 mL of anhydrous ethanol was added to each, mixed well, and then left to stand in the dark […]. Samples were taken at 0.5 h, 1 h, 2 h, and 4 h respectively, and the absorbance was measured at a wavelength of 517 nm. The average of three parallels was calculated and noted as Aj. • (3) 0.9 mL of distilled water was taken, to which 0.9 mL of DPPH ethanol solution was added, mixed well, and the absorbance was measured at a wavelength of 517 nm. The average of three parallels was calculated and noted as A4. • (4) 0.9 mL of anhydrous ethanol was taken, to which 0.9 mL of distilled water was added, mixed well, and was used as a blank. The DPPH radical scavenging rate was calculated according to the formula below, and the results were recorded in Table 3. [formula]

[2] = Hydroxyl radical scavenging experiment (Fenton reaction, 1,10-phenanthroline spectrophotometry); type: biochemical; conditions: for Hydroxyl Radical Scavenging Rate: 37° C., 30 minutes, 536 nm
Source text: The Hydroxyl Radical Scavenging Activity is an important indicator for measuring the antioxidant capacity of substances. Currently, the main analytical testing methods for hydroxyl radicals include High Performance Liquid Chromatography, Chemiluminescence, Fluorescence Analysis, and Spectrophotometry, etc. Among them, the most commonly used method for measuring the hydroxyl radical scavenging activity is Spectrophotometry, which can be used to determine the inhibition of the absorbance decline of the colorant 1,10-Phenanthroline by the sample, thereby reflecting the ability of the sample to scavenge hydroxyl radicals. The measurement principle is as follows: H2O2/Fe^2+ produces hydroxyl radicals through the Fenton reaction, oxidizing Fe^2+ in the 1,10-Phenanthroline-Fe^2+ aqueous solution to Fe^3+, leading to a decline in the absorbance at 536 nm. The degree to which the sample inhibits the rate of absorbance decline at 536 nm reflects the ability of the sample to scavenge hydroxyl radicals.
• (1) FeSO4 Solution: 1.5 mM and 5 mM FeSO4 aqueous solutions were prepared using conventional methods. • (2) PBS Buffer: • 1) 0.2 mol/L sodium dihydrogen phosphate and 0.2 mol/L disodium hydrogen phosphate aqueous solutions were prepared. • 2) 19 mL of sodium dihydrogen phosphate aqueous solution and 81 mL of disodium hydrogen phosphate aqueous solution were taken, mixed well, and the pH was adjusted to 7.4 (measured with a pH meter, and the pH value was adjusted with 0.1 mol/L sodium hydroxide or 0.1 mol/L phosphoric acid if necessary). • (3) 1,10-Phenanthroline: 0.75 mM and 3 mM aqueous solutions were prepared using conventional methods. • (4) Hydrogen Peroxide (H2O2) Solution: 0.1% (v/v) aqueous solution was prepared using conventional methods. • (5) α-salidroside Solution: 1 mg/mL and 4 mg/mL aqueous solutions were prepared using conventional methods. • (6) β-salidroside Solution: 1 mg/mL and 4 mg/mL aqueous solutions were prepared using conventional methods.
Scheme 1: Using 5 mM FeSO4 aqueous solution, 0.1% hydrogen peroxide, 1 mg/mL α-salidroside aqueous solution or 1 mg/mL β-salidroside aqueous solution, and 3 mM 1,10-Phenanthroline aqueous solution, the following operation steps were carried out for the reaction.
Scheme 2: Using 1.5 mM FeSO4 aqueous solution, 0.1% hydrogen peroxide, 4 mg/mL α-salidroside aqueous solution or 4 mg/mL β-salidroside aqueous solution, and 0.75 mM 1,10-Phenanthroline aqueous solution, the following operation steps were carried out for the reaction.
Specific Operation Steps: (1) 40 μL of α-salidroside solution or β-salidroside solution was taken separately, to which 40 μL of FeSO4 solution, 60 μL of PBS buffer solution (pH 7.4), and 40 μL of 1,10-Phenanthroline solution were added respectively, mixed well. Then, 40 μL of H2O2 solution was added and mixed well again. […] Using distilled water as blank, the absorbance at 536 nm wavelength was measured and the average of three parallels was calculated and noted as Ai.
(2) 80 μL of distilled water was taken, to which 40 μL of FeSO4 solution, 60 μL of PBS buffer solution (pH 7.4), and 40 μL of 1,10-Phenanthroline solution were added and mixed well. […] Using distilled water as blank, the absorbance at 536 nm wavelength was measured and the average of three parallels was calculated and noted as Aj. […] Using distilled water as blank, the absorbance at 536 nm wavelength was measured and the average of three parallels was calculated and noted as A0.

[3] = Scheme 1: 1 mg/mL sample solution, 5 mM FeSO4, 0.1% hydrogen peroxide, 3 mM 1,10-Phenanthroline
[4] = Scheme 2: 4 mg/mL sample solution, 1.5 mM FeSO4, 0.1% hydrogen peroxide, 0.75 mM 1,10-Phenanthroline

| SMILES | DPPH Radical Scavenging Rate ([1]; 0.5 h) | DPPH Radical Scavenging Rate ([1]; 1 h) | DPPH Radical Scavenging Rate ([1]; 2 h) | DPPH Radical Scavenging Rate ([1]; 4 h) | capability of scavenging DPPH radicals compared to β-salidroside ([1]; in words, from Table 3, especially when the reaction time is over 1 hour) | Hydroxyl Radical Scavenging Rate [2, 3] | Hydroxyl Radical Scavenging Rate [2, 4] | capability in scavenging hydroxyl radicals compared to β-salidroside ([2]; in words, from Table 4, both schemes) |
| --- | --- | --- | --- | --- | --- | --- | --- | --- |
| OC[C@H]1O[C@H](OCCc2ccc(O)cc2)[C@H](O)[C@@H](O)[C@@H]1O [α-salidroside, 2-(4-hydroxyphenyl) ethyl-α-D-glucopyranoside] | 19.29% | 28.45% | 31.00% | 34.12% | higher capability of scavenging DPPH radicals compared to β-salidroside | 28.69% | 21.62% | far superior to that of β-salidroside |
| OC[C@H]1O[C@@H](OCCc2ccc(O)cc2)[C@H](O)[C@@H](O)[C@@H]1O [β-salidroside, reference compound] | 19.96% | 23.21% | 28.24% | 28.33% | – | 13.92% | 4.05% | – |
